We go through four compounds from US6011000A, “Compositions for the treatment of blood disorders” (priority 1995, dated 2000).

One data set concerns K562. Nature of the data set: Growth of human erythroid cell line K562. Conditions: for growth of K562: 0.5 mM, over 3 days. Format: cell-based. The protocol: Such activities might limit their utility for treatment of anemias such as occur in thalassemia, but alternatively would be useful for anticancer effects. […]
(§1) Cell viability analyses were performed using fluorescent staining to detect living cells. Cells were in log phase of growth in 6-well dishes when used in proliferation assays. For enumeration of living cells, wells were washed once with medium to remove nonadherent or dead cells. Remaining live cells were labeled with Calcein-AM for 20 minutes at 37° C. and washed once. Fluorescence intensity of adherent live cells was read on a CytoFluor 2300 Fluorescence Plate Scanner (Millipore; Bedford, Mass.) at excitation and emission wavelengths of 485 and 530 nm, respectively. The fluorescence intensity of a well was proportional to the number of living cells in the well. Background fluorescence was measured separately for each plate and subtracted from all readings. Each experiment was performed in triplicate or quadruplicate. The standard deviation (SD) of repetitive readings was less than 30% of the mean.
At higher concentrations, still easily achievable in vivo, arginine butyrate (0.5 mM) and dihydrocinnamic acid (greater than 0.5 mM) inhibited growth of this tumor cell line by approximately 50%. Therefore, these compounds are also useful as anti-tumor agents.

Data set [1] relates to erythroid cells (peripheral blood). In words: Erythroid cell viability by fluorescent staining (Calcein-AM), FIG. 2. The class given is cell-based, human. Conditions: 0.5 mM, vs untreated controls. The protocol: FIG. 2 Peripheral blood cell viability after incubation with arginine butyrate, dihydrocinnamic acid, phenoxyacetic acid and butyric acid ethyl ester.
as §1, with “Compositions were tested for the ability to directly stimulate erythroid cell growth. Cell growth stimulation is a useful property for an agent to be used to treat anemias and distinguishes such agents from the cytotoxic drugs currently being tested for treatment of hemoglobinopathies. Cell viability” for “Cell viability”, “labeled with 2 μM 2',7'-bis-(carboxyethyl)-5-(and 6)-carboxy-fluorescein acetoxy-methyl ester (Calcein-AM) (Molecular Probes; Eugene, Oreg.) for 20” for “labeled with Calcein-AM for 20”, “intensity of live cells” for “intensity of adherent live cells”, “the mean. Results are depicted in FIG. 2.” for “the mean.”

Another data set deals with K562 cells. Nature of the data set: Dose response of cell growth, trypan blue exclusion (FIG. 3). The class given is cell-based, human. The following applies: up to 2.0 mM, day 4. The protocol: FIG. 3 Cell viability as determined by the comparative numbers of total and viable K562 cells in the presence of increasing concentrations of (A) phenoxyacetic acid, (B) dihydrocinnamic acid, (C) butyric acid ethyl ester, (D) arginine butyrate, and (E) isobutyramide.
Dose response curves at dosages of up to 2.0 mM were also determined for phenoxyacetic acid (PAA; FIG. 3A), dihydrocinnamic acid (DHC; FIG. 3B), butyric acid ethyl ester (BAEE; FIG. 3C), arginine butyrate (AB; FIG. 3D) and isobutyramide (IBT; FIG. 3E). Cells were counted on day 4 of treatment and viable cells identified by trypan blue exclusion.

For data set [2], the system named is fetal globin (gamma globin). In words: Fetal globin expression in erythroid progenitor cells from cord blood. Format: cell-based, human. The protocol:
Compositions were tested for activity in inducing fetal globin expression and protein production in erythroid progenitor cells cultured from human cord blood and analyzed as described by S. P. Perrine et al. (Blood 74: 454-60, 1989). Briefly, mononuclear cells were cultured in IMDM with 30% fetal calf serum and 2 units erythropoietin per ml to induce erythroid differentiation. Colonies were harvested on day 12-13, incubated with radio-labelled (^3 H) leucine, and further incubated in leucine-free media, still in the presence of compounds, overnight. Globin composition in the erythroid cells was analyzed by laser densitometry of electrophoretically separated globin chains stained with Coomassie blue, and by autoradiography. Treated cells were incubated for 12-13 days (Table 2, Experiments A and B) or overnight (Table 2, Experiment C) in the presence of the indicated compounds and compared to untreated control cells cultured from the same human subject.

Another data set relates to human erythroid cells. Nature of the data set: DNA fragmentation by flow cytometry (degradation of DNA). Format: cell-based. Here is the method:
Such activities might limit their utility for treatment of anemias such as occur in thalassemia, but alternatively would be useful for anticancer effects. To determine cell viability, human erythroid cells were cultured in the presence and absence of these compounds for 4 days and the amount of DNA fragmentation which occurred was measured.
Flow cytometric determination of DNA profiles and DNA fragmentation were determined. Cytometric analysis was performed with a FACScan (Becton Dickenson Instruments; Columbia, Md.). The data analysis and display were performed using the Cell-Fit software program. Approximately 0.5×10^6 cells were washed twice with PBS and resuspended in 1 ml of 1% sodium citrate, 0.1% Triton X-100 and 50 μg of propidium iodide/ml. Resulting permeabilized cells were kept in the dark at 4° C. overnight before DNA profile or DNA fragmentation analysis (Table 4).

In data set [3] the test system is fetal globin mRNA (human erythroleukemia cells). In words: Fetal globin mRNA in erythroleukemia cells (primer extension). The class given is cell-based. The protocol:
Compounds were tested for increased expression of the human globin genes in human erythroid cells. In addition, as the cell line being tested is a tumor cell line, the assay determines if differentiation, a growth inhibitory effect on cancer cells, is induced by the compounds tested. Human erythroleukemia cells were cultured in RPMI media with 10% fetal calf serum alone or with treatment with various compounds for 4 days. Globin MRNA was quantitated by primer extension analysis. Fetal globin mRNA was compared to the amount of fetal globin mRNA produced in untreated cells during the same culture period. The quantitation was expressed as a percent of alpha globin MRNA which was constant. Results are expressed proportional to α-globin mRNA (Table 3).

The test system of data set [4] is BFU-e (burst forming unit-erythroid). In words: BFU-e stimulation (colony growth) in cultured peripheral blood mononuclear cells. The class given is cell-based. The following applies: Homo sapiens, PBMC; 0.1 mM; read-out: more BFU-e colonies from the same number of mononuclear cells than control cultures. The protocol:
Peripheral blood was collected from normal volunteers and patients with anemia due to sickle cell disease or thalassemia Mononuclear cells were isolated by Ficoll-Hypaque (Pharmacia Biotech; Piscataway, N.J.) centrifugation and cultured in Iscove's Modified Dulbecco's Media (IMDM; GIBCO/BRL; Grand Island, N.Y.) supplemented with 10% fetal calf serum, 300 μg/ml glutamine, 3 units/ml IL 3 (Amgen; Thousand Oaks, Calif.), and 2 units/ml erythropoietin (Terry Fox Labs; Vancouver, B.C.). Chemical compounds were obtained from Sigma Chemical (St. Louis, Mo.) or Aldrich Chemical (Milwaukee, Wis.), unless otherwise indicated, and formulated into pharmaceutical compositions by dissolving in aqueous solutions of media or sterile water pH adjusted to about 7.4. Solutions were sterilized by passage at least once through 0.22 micron Nalgene filters and added to cell cultures at final concentrations that are pharmaceutically achievable in vivo (typically between about 0.1 mM to 2.0 MM). Cells were incubated with compounds for between 13-14 days at 37° C. in humidified 5% CO2, and fed and passed, as necessary. Colony growth, proportion of fetal globin-expressing cells and amounts of fetal globin production were assayed. Results are presented in Table 1 as BFU-e stimulation (colony growth). […]

For a further data set, the system named is anemic baboon. In words: In vivo reticulocyte proliferation, globin expression and blood counts in anemic (phlebotomized) baboons. Conditions: 4 days. Here is the method: Experiments were performed to determine if administration of the chemical compositions could induce fetal globin gene expression in an in vivo model similar to humans (S. P. Perrine et al., Brit. J. Haematol. 88:555-61, 1994). Briefly, chemicals were prepared as sterile pharmaceutical solutions in pH adjusted sterile water. A variety of chemical compositions were administered sequentially to some baboons. After administration of one compound, a wash-out period with no compound administration was maintained until reticulocytes returned to base line prior to administration of the next compound. This was done, at least partly, to compare the magnitude of response which occurred within the same individual animal to different compounds.
Briefly, juvenile female baboons (2 years old) were catheterized with arterial and venous catheters and phlebotomized gradually every day to maintain a moderate anemia of 7.0 to 7.5 grams hemoglobin/dl. Fetal reticulocytes, the newly produced red blood cells containing fetal globin, were assayed using a monoclonal antibody against fetal globin (HbF) as described by G. Dover et al. (Blood 67:735-38, 1986). Briefly, blood was stained with two antibodies, one specific for reticulocytes and another against fetal globin protein. The amount of antibody bound cells was determined by FACS analysis. Globin chain synthesis was assayed as described by J. B. Clegg et al. (J. Mol. Biol. 19:91-108, 1966). Briefly, reticulocytes were radio-labeled with ^3 H-leucine which was incorporated in equal proportions into actively synthesized globin chains. After incubation in leucine-free media, cells were washed, and globin proteins were separated and purified by column chromatography. Radioactivity incorporated into each peak is compared and the ratios of gamma to gamma plus beta globin calculated. Each animal served as its own control with baseline monitoring assays performed for 4-6 weeks before any drug was administered. Phlebotomy was continued daily, so that peripheral HbF levels in the animals were not considered to be accurate over the short treatment time-frames and were not monitored. Safety monitoring was performed by frequent physical examinations, quantitation of food eaten, activity and frequent chemistry and hematology monitoring. Complete blood counts were assayed before, during and after treatment. Results presented were not adjusted to account for the daily phlebotomy.

Data set [5] relates to hemoglobin polymerization. Conditions: artificially deoxygenated blood; cited from earlier work.
The mark [6] stands for this setting: Exp. A, 0.1 mM, 12-13 days, untreated 76.0%.
[7] abbreviates: Exp. C, 0.1 mM, overnight, untreated 52.0%.

As to `CCCC(=O)OCC` [BAEE, butyric acid ethyl ester], the “growth of K562” value in the data set on K562 is reported as “either did not inhibit, or slightly enhanced growth”. In addition, the “erythroid cell growth and proliferation” value in [1] was “either had no effect or stimulated erythroid cell growth and proliferation”. The proliferation entry in the data set with K562 cells is “did not significantly inhibit proliferation”. Moreover, the “Gamma/(Gamma + Beta)” value in [2] (setting [6]) is reported as 89.5%; in data set [2] (Exp. B, 0.2 mM, 12-13 days, untreated 25.4%, 27.5%), 74.0%; in data set [2] (setting [7]), 64.6%. For the same compound, in the data set with human erythroid cells (1.0 mM to 2.0 mM, untreated 26%), the “proportion of degraded DNA” value was 13.8%. The “Degraded DNA” value in the data set on human erythroid cells (2.0 mM, 4 days, control 26%, 22%) was found to be 13.8%. In addition, in the data set on human erythroid cells (DNA fragmentation assays), the “DNA fragmentation / cell viability / DNA integrity” value is on record as “reduce DNA fragmentation”. The “induction of fetal globin mRNA” value in data set [3] was “significantly increased the induction of fetal globin MRNA”. The “stimulation of fetal globin expression relative to AB” value in [3] (1.0 mM) was “over two times greater than even AB alone”. The compound also displayed a Gamma/Alpha in [3] (1.0 mM, 4 days, untreated 0.46) of 0.90. Further, the activation at 1000 µM in data set [3] (Homo sapiens, 96 h, 1.0 mM, 4 days, read-out: Gamma Globin mRNA (increase)) is 44%.
As to `O=C(O)CCc1ccccc1` [DHC, Dihydrocinnamic acid], the “growth of K562” value with K562 is given as “either did not inhibit, or slightly enhanced growth”. Also, in the data set on K562 (greater than 0.5 mM), the “growth inhibition of K562” value is given as “approximately 50%”. Also, the “erythroid cell growth and proliferation” value in data set [1] is “either had no effect or stimulated erythroid cell growth and proliferation”. Also, the activation at 100 µM in [4] stood at 124%. Moreover, the “red blood cell count” value in the data set with anemic baboon (1,000 mg/kg/day i.v., from 2.3) is on record as 2.73 10^6 cells/μl. Further, in the data set on anemic baboon (1,000 mg/kg/day i.v., from 6.6), the Total hemoglobin turned out to be 7.3 grams/dl. Besides, in the data set with anemic baboon (1,000 mg/kg/day i.v., from 20.9%), the “packed red blood cell volume” value is listed as 22.7 % of the blood. Further, the Fetal reticulocytes with anemic baboon (300 to 500 mg/kg per day infused, from 10%) was 17%. In addition, the “Gamma/(Gamma + Beta)” value in [2] (setting [6]) came out at 88.0%; in [2] (setting [7]), 76.0%; in data set [2] (Exp. C, 0.2 mM, overnight, untreated 52.0%) it was 71.9%; in data set [2] (Exp. C, 0.5 mM, overnight, untreated 52.0%) it was 71.3%.
With `CC(C)(Oc1ccc(Cl)cc1)C(=O)O` [clofibric acid], in data set [5], the inhibition of polymerization result is reported as “inhibit polymerization”.
Regarding `O=C(O)COc1ccc(Cl)cc1` [p-chloro phenoxy acetic acid], in [5], the inhibition of polymerization entry was “inhibit polymerization”.
